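A five-concentration, 48-hour dose response in 96-well plates underlies each endpoint, interpolated linearly between surrounding concentrations. GI50 is the concentration that inhibits growth by half. TGI is the concentration that stops growth completely.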
Assays:
Assay in all cases: NCI anticancer screen, dose series, 48 h
786-0 renal = system: 786-0 renal
ACHN renal = system: ACHN renal
M14 melanoma = system: M14 melanoma
MALME-3M melanoma = system: MALME-3M melanoma
MDA-MB-435 = system: MDA-MB-435
NCI-H23 lung = system: NCI-H23 lung
OVCAR-8 ovarian = system: OVCAR-8 ovarian
SNB-75 CNS = system: SNB-75 CNS
UACC-62 melanoma = system: UACC-62 melanoma
DLD-1 colon = system: DLD-1 colon
HOP-18 NSCLC = system: HOP-18 NSCLC
M19-MEL melanoma = system: M19-MEL melanoma

| SMILES | TGI (786-0 renal) [µM] | TGI (ACHN renal) [µM] | TGI (M14 melanoma) [µM] | TGI (MALME-3M melanoma) [µM] | TGI (MDA-MB-435) [µM] | TGI (NCI-H23 lung) [µM] | TGI (OVCAR-8 ovarian) [µM] | TGI (SNB-75 CNS) [µM] | TGI (UACC-62 melanoma) [µM] | GI50 (ACHN renal) [µM] | GI50 (M14 melanoma) [µM] | GI50 (MALME-3M melanoma) [µM] | GI50 (MDA-MB-435) [µM] | GI50 (NCI-H23 lung) [µM] | GI50 (OVCAR-8 ovarian) [µM] | GI50 (SNB-75 CNS) [µM] | GI50 (UACC-62 melanoma) [µM] | TGI (DLD-1 colon) [µM] | TGI (HOP-18 NSCLC) [µM] | TGI (M19-MEL melanoma) [µM] |
| --- | --- | --- | --- | --- | --- | --- | --- | --- | --- | --- | --- | --- | --- | --- | --- | --- | --- | --- | --- | --- |
| Nc1cc(S(=O)(=O)O)cc2ccc(S(=O)(=O)O)cc12 | > 100 | > 100 | > 100 | > 100 | > 100 | > 100 | > 100 | > 100 | > 100 | – | – | – | – | – | – | – | – | – | – | – |
| Cc1ccc2nc(-c3ccc(NC(=O)c4ccc(N)cc4)c(S(=O)(=O)O)c3)sc2c1 | > 100 | > 100 | > 100 | > 100 | > 100 | > 100 | > 100 | > 100 | > 100 | – | – | – | – | – | – | – | – | – | – | – |
| N#Cc1ccccc1C#C/C=C\C#Cc1ccccc1N | – | > 38.3 | 11.3 | 40.2 | 3.21 | 29.2 | > 30 | > 25.3 | > 33.6 | 7.88 | 0.243 | 2.86 | 1.34 | 2.88 | 7.27 | 6.13 | 3.03 | – | – | – |
| Cn1c2[n+](c3nc(N)[nH]c(=O)c31)C1OC(C2)C(O)C1O (stereo not drawn) | > 100 | > 100 | > 100 | > 100 | – | > 100 | > 100 | > 100 | > 100 | – | – | – | – | – | – | – | – | > 100 | > 100 | > 100 |
| COc1ccc(-c2nn(-c3ccc(NC(=O)c4cc(Cl)cc(Cl)c4)cc3)cc2-c2ccncc2)cc1Cl | – | > 100 | 9.08 | – | > 100 | > 100 | > 100 | – | > 100 | > 100 | 2.4 | – | > 100 | > 100 | > 100 | – | 5.27 | – | – | – |
| O=C(O)C1CCCCN1C(=O)Cc1c[nH]c2ccccc12 (stereo not drawn) | > 100 | > 100 | > 100 | > 100 | > 100 | > 100 | > 100 | > 100 | > 100 | – | – | – | – | – | – | – | – | – | – | – |
| Cc1cc2ccc(OC(=O)c3ccc(N=C(N)N)cc3)cc2oc1=O | 64.6 | > 100 | 97.7 | 60.7 | 58.1 | 46.5 | > 100 | 71.9 | 79.1 | – | – | – | – | – | – | – | – | – | – | – |
| CC(=O)Nc1ccc(C(=O)NN2C(=O)C(Cl)C2c2cccc([N+](=O)[O-])c2)cc1 (stereo not drawn) | – | > 100 | – | > 100 | – | > 100 | > 100 | > 100 | > 100 | – | – | – | – | – | – | – | – | > 100 | – | > 100 |

Reference: PubChem BioAssay (NCI)
